# According to patent US7045551B2 (Bristol-Myers Squibb Company, priority 2002, dated 2006):
# pEC50: −log10 of the molar value.
# Experiments:
# mKCNQ2 channels = target: T1, mKCNQ2 channels (Mus musculus, UniProt Q9Z351); test: Whole-cell patch-clamp recordings of mKCNQ2 currents; format: cell-based; settings: for EC50: HEK 293 stable cell line expressing mKCNQ2, @ −40 mV, room temperature; for Imax (%): HEK 293 stable cell line expressing mKCNQ2, Imax from Hill-type curve fit
# T1 construct: expressed in transfected cells
# Procedure: Whole-cell patch-clamp recordings were made from an HEK 293 stable cell line expressing mKCNQ2 channels, maintained in culture for 1–2 days. Patch pipettes had initial resistances of 2.5–4 MΩ. Currents were recorded with an EPC-9 amplifier (HEKA, Lambrecht, Germany) controlled with software (Pulse, HEKA) run on a standard lab PC. Series resistance compensation was used during current recording, and set at 80%. The series resistance (R) and cell capacitance (C) were determined electronically by subtracting the capacitive currents at the onset and offset of a 5 mV voltage step. The cancellation of whole-cell capacitive transients was virtually complete in all cells. Analog current signals were low-pass filtered at 2.9 kHz using a four-pole Bessel filter −3 dB) and stored on a local network server computer at a sampling rate of […]. All recordings were performed at room temperature (20–22° C.). The pipette solution contained (mM): KCl, 150; CaCl2, 2.5; EGTA, 5; MgCl2, 1; HEPES, 10; pH to 7.3 with KOH, and Osmolality of 290–300 mOsm. The extracellular solution contained (mM): NaCl, 140; KCl, 2.5; CaCl2, 2.5; MgCl2, 1; glucose, 10; HEPES, 10; pH to 7.3 with NaOH, and Osmolality of 305–310 mOsm
# Concentration response data were generated by measuring the difference in the steady-state amplitude of current in the presence of compound at the end of a 600 ms voltage-clamp step from a holding potential of −80 mV. The concentration-response data were fitted with Hill-type equations: I=Imax/(1+EC50/[A]^nH), where I is the steady-state current at a given concentration of agonist [A]; and Imax, EC50 and nH are parameters estimated from the curve fit. In some cases the concentration-response data were fitted with equations consisting of the sum of two Hill-type components. Current-voltage (I/V) relationships for agonist-evoked currents were obtained by performing 600 ms voltage steps (−110 mV to +40 mV) in the absence and presence of agonist.
# [1] = target: voltage-gated K+ channel KCNQ2 (Homo sapiens, UniProt O43526); test: Thallium flux assay for openers of KCNQ potassium channels; format: cell-based; settings: 10 point concentration series, concentration required to yield 50% of the maximal response
# Text: A thallium flux assay was used to detect and characterize openers of KCNQ potassium channels. The thallium assay is generally described in International application WO 02/31508 published Apr. 18, 2002. More specifically, the thallium influx assay to detect compounds that block or open the voltage-gated K^+ channel KCNQ2 is described in Example IV of the published WO 02/31508 application.
# For data analysis, the amplitude of the average of the negative controls was subtracted from all wells. The amplitudes of the test compounds were then compared to the value of four standard deviations of the negative control wells. The lowest concentration of a test compound sufficient to generate a signal amplitude greater than or equal to four standard deviations from the amplitude of the negative controls was defined as the minimal active concentration.
# For generating EC50 values, compounds were serially diluted in 1:3 volume increments to produce a 10 point concentration series. EC50 values were calculated by fitting the resulting amplitudes to a single-site logistic equation. EC50 was defined as the concentration of test compound required to yield 50% of the maximal response. Maximal response (Maximal opening) was the largest signal amplitude above the negative control generated by any concentration of a test compound.
Compound,EC50 (mKCNQ2 channels) [µM],Imax (%) (mKCNQ2 channels),pEC50 [1]
"O=C(/C=C/c1ccc(F)cc1F)NC(CO)c1cccc(N2CCOCC2)c1 (stereo in doubt) [Example 18, (R)-3-(2,4-Difluoro-phenyl)-N-[2-hydroxy-1-(3-morpho-lin-4-yl-phen-yl)-ethyl]-acrylamide]",1.46,820,–
"O=C(/C=C/c1cccc(F)c1)N[C@@H](CO)c1ccc2ccccc2c1 [Example 47, (R)-3-(3-Fluoro-phenyl)-N-(2-hy-droxy-1-naphthalen-2-yl-eth-yl)-acrylamide]",–,–,7.41
"O=C(/C=C/c1ccc(F)cc1)N[C@@H](CO)c1ccc2ccccc2c1 [Example 48, (R)-3-(4-Fluoro-phenyl)-N-(2-hy-droxy-1-naphthalen-2-yl-eth-yl)-acrylamide]",0.619,981,6.30
O=C(/C=C/c1ccccc1)N[C@@H](CO)c1ccc2ccccc2c1 [Example 49],–,–,6.45
"O=C(/C=C/c1ccc(F)cc1F)N[C@@H](CO)c1ccc2ccccc2c1 [Example 55, (R)-3-(2,4-Difluoro-phen-yl)-N-(2-hydroxy-1-naph-thalen-2-yl-ethyl)-acryl-amide]",–,–,6.84
"O=C(/C=C/c1ccc(F)c(F)c1)N[C@@H](CO)c1ccc2ccccc2c1 [Example 58, (R)-3-(3,4-Difluoro-phen-yl)-N-(2-hydroxy-1-naph-thalen-2-yl-ethyl)-acryl-amide]",–,–,6.05
"O=C(/C=C/c1ccccc1Cl)N[C@H](c1ccc2ccccc2c1)[C@H](O)CO [Example 106, (1R,2S)-3-(2-Chloro-phenyl)-N-(2,3-dihydroxy-1-naph-thalen-2-yl-propyl)-acryl-amide]",–,–,5.84
"O=C(/C=C/c1ccc(F)cc1F)N[C@H](c1ccc2ccccc2c1)[C@H](O)CO [Example 111, (1R,2S)-3-(2,4-Difluoro-phen-yl)-N-(2,3-dihydroxy-1-naph-thalen-2-yl-propyl)-acryl-amide]",–,–,6.01
